Positions of bridges follow the written chain, without caps; N, C: chain ends. Non-standard residues stand in square brackets, D forms with d. No end group written: not given here. d2Nal = N[C@H](Cc1ccc2ccccc2c1)C(=O)O; Nle = CCCC[C@H](N)C(=O)O; Ahx = NCCCCCC(=O)O; βAla = NCCC(=O)O
Assays:
[1] = test system: CCI mice (mouse model of neuropathic pain); experiment: Cold plate test (hyperalgesia) in mice with sciatic nerve injury (CCI), intrathecal administration; format: in vivo; details: mice in the neuropathic pain model, cold plate 2° C., range in brackets
Protocol: (§1) Albino Swiss mice were subjected to a loose unilateral ligation of the right sciatic nerve (a chronic constriction injury, CCI) according to the model developed by Bennett and Xie, Pain 33, 87-107, […]. […] The tests permitted to determine the analgesic efficiency of the novel compounds in the model of neuropathic pain. In the control mice (due to the absence of hypersensitivity, which characterizes neuropathic pain) at the same time points, a test of tail flick was conducted to determine pain threshold in the acute pain after intrathecal administration of the hybrid peptidomimetics.
(§2) The results were presented for doses in micrograms, at which a half (50%) of the maximum effect (ED50) is reached. Calculation of the ED50 value requires clear dose-dependent effects.

[2] = test system: CCI mice (mouse model of neuropathic pain); experiment: Mouse model of neuropathic pain (CCI), von Frey and cold plate tests taken together, intrathecal administration; format: in vivo; details: for analgesic activity in neuropathic pain (mice): CCI mice, von Frey and cold plate tests, FIGS. 1-7 (B, C); for analgesic activity of the reference compounds (mice, first stage): reason why no ED50 was calculated
Protocol: as §1

[3] = test system: healthy mice (control mice); experiment: Tail flick test, acute pain threshold in control mice after intrathecal administration; format: in vivo, mouse; details: for analgesic activity in control mice: healthy mice, FIGS. 1-7 (A)
Protocol: as §1, §2

[4] = test system: healthy rats (control rats); experiment: Acute pain threshold in healthy (control) rats after intrathecal administration; format: in vivo; details: 0.1 μg/5 μl/rat, FIGS. 10-13 (A)
[5] = test system: CCI mice (mouse model of neuropathic pain); experiment: Mouse model of neuropathic pain (CCI), von Frey and cold plate tests after intravenous administration; format: in vivo; details: CCI mice, 15, 30 and 120 min, FIGS. 8-9
Protocol: In the second stage of the pharmacological studies, the effect of the peripheral, intravenous administration of the hybrid peptidomimetics according to the invention (UW3, UW5) on the sensitivity to a mechanical stimulus (A) (von Frey test) and thermal stimulus (B) (cold plate test) threshold compared to a control group receiving water for injection was tested on mice in the neuropathy model (FIGS. 8 and 9). The studies were conducted at days 7-14 from the CCI procedure on mice at 15, 30 and 120 min after intravenous administration of the hybrid peptidomimetics UW3 and UW5 in the selected doses.

[6] = test system: CCI mice (mouse model of neuropathic pain); experiment: Von Frey test (allodynia) in mice with sciatic nerve injury (CCI), intrathecal administration; format: in vivo; details: mice in the neuropathic pain model, range in brackets
Protocol: as §1, §2

[7] = test system: CCI rats (rat model of neuropathic pain); experiment: Rat model of neuropathic pain (CCI), von Frey and cold plate tests after intrathecal administration; format: in vivo; details: 0.1 μg/5 μl/rat, FIGS. 10-13 (B, C)
Protocol: Wistar rats were subjected to cannulation for intrathecal administration by a method of Yaksh, T. L., Rudy, T. A., described in Physiol. Behay. 17, 1031-1036, 1976, and seven days after this procedure, a loose unilateral ligation of the right sciatic nerve (a chronic constriction injury, CCI) according to the model developed by Bennett and Xie (1988). After seven days from the CCI procedure, behavioral tests were conducted: the von Frey test and cold plate test to measure hypersensitivity to tactile and thermal stimuli, respectively. Hypersensitivity developed after injury of the nerve to two types of stimuli is a symptom of neuropathy.

Y[dA]GF[Ahx][Nle]DH[d2Nal]RWK-NH2 (lactam 7-12) [UW3]
Cold plate (hyperalgesia) ED50 [1]: 0.008 (0.005-0.01) μg | analgesic activity in neuropathic pain (mice) [2]: higher analgesic efficiency | analgesic activity in control mice [3]: limited analgesic efficiency | analgesic activity in healthy (control) rats [4]: very weak activity | analgesic efficiency after peripheral, intravenous administration [5]: high analgesic efficiency | Von Frey test (allodynia) ED50 [6]: 0.0004 (0.0001-0.002) μg | analgesic activity in the rat model of neuropathic pain [7]: reaches maximum values

Tyr-D-Ala-Gly-Phe-NH2 [UW1, reference compound]
Cold plate (hyperalgesia) ED50 [1]: 9.3 (2.7-32)^ μg | analgesic activity in neuropathic pain (mice) [2]: weakened in both or at least one hypersensitivity determining test | Control mice Tail flick test ED50 ([3]; control mice, dose giving 50% of maximum effect, range in brackets): 0.03 (0.02-0.05) μg | analgesic activity in control mice [3]: show activity | analgesic activity in healthy (control) rats [4]: weak activity | Von Frey test (allodynia) ED50 [6]: 0.16 (0.1-0.25) μg | analgesic activity in the rat model of neuropathic pain [7]: weak activity

Y[dA]GF[dA][Nle]DH[d2Nal]RWK-NH2 (lactam 7-12) [UW2]
analgesic activity of the reference compounds (mice, first stage) [2]: very weak and dose dependency-deprived analgesic activity

Tyr-D-Ala-Gly-Phe-4AMB-Nle-cyclo[Asp-His-D-Nal(2′)-Arg-Trp-Lys]-NH2 [UW6]
analgesic activity of the reference compounds (mice, first stage) [2]: very weak and dose dependency-deprived analgesic activity

Y[dA]GF[Ahx][Ahx][Nle]DH[d2Nal]RWK-NH2 (lactam 8-13) [UW5]
Cold plate (hyperalgesia) ED50 [1]: 0.2 (0.008-6.5) μg | analgesic activity in neuropathic pain (mice) [2]: higher analgesic efficiency | analgesic activity in control mice [3]: limited analgesic efficiency | analgesic activity in healthy (control) rats [4]: very weak activity | analgesic efficiency after peripheral, intravenous administration [5]: high analgesic efficiency | Von Frey test (allodynia) ED50 [6]: 0.02 (0.00003-15) μg | analgesic activity in the rat model of neuropathic pain [7]: reaches maximum values

Y[dA]GF[βAla][Nle]DH[d2Nal]RWK-NH2 (lactam 7-12) [UW4]
analgesic activity of the reference compounds (mice, first stage) [2]: very weak and dose dependency-deprived analgesic activity

From patent US11041010B2, “Hybrid peptidomimetics for use in neuropathic pain” (Uniwersytet Warszawski, priority 2017, dated 2021)
